Common to all, as to type: in vivo, rat
Series [1] concerns non-pre-treated Sprague-Dawley rats. Kind of series: Spontaneous locomotor activity (distance travelled). The conditions noted are these: 0.3 μmol/kg SC; for effect on motor activity (distance travelled): n=5, 0-180 min, vs saline, FIG. 6 and 7. As for the experimental part:
Behavioral activity was measured using eight Digiscan activity monitors (RXYZM (16) TAO, Omnitech Electronics, Columbus, OH, USA), connected to an Omnitech Digiscan analyzer and an Apple Macintosh computer equipped with a digital interface board (NB DIO-24, National Instruments, USA). Each activity monitor consisted of a quadratic metal frame (W×L=40 cm×40 cm) equipped with photo beam sensors. During measurements of behavioral activity, a rat was put in a transparent acrylic cage (W×L×H, 40×40×30 cm) which in turn was placed in the activity monitor. Each activity monitor was equipped with three rows of infrared photo beam sensors, each row consisting of 16 sensors. Two rows were placed along the front and the side of the floor of the cage, at a 90° angle, and the third row was placed 10 cm above the floor to measure vertical activity. Photo beam sensors were spaced 2.5 cm apart. Each activity monitor was fitted in an identical sound and light attenuating box containing a weak house light and a fan.
The computer software was written using object-oriented programming (LabVIEW™ National instruments, Austin, TX, USA).
Behavioral data from each activity monitor, representing the position (horizontal center of gravity and vertical activity) of the animal at each time, were recorded at a sampling frequency of 25 Hz and collected using a custom written LABView™ application. The data from each recording session were stored and analyzed with respect to distance traveled. Each behavioral recording session lasted 180 min, starting approximately 5 min after the injection of test compound.
Compounds disclosed herein have been tested for effects on spontaneous locomotor activity in non-pre-treated Sprague-Dawley rats (based on accumulated distance travelled 0-180 min post dosing), and with the single dose of 0.3 μmol/kg (n=5, SC) compared to a control group of animals (n=5) that obtained saline (SC). The unit of the distance travelled is an arbitrary unit.
The animals were placed in the motility meters immediately after administration and locomotor activity was recorded for 180 minutes.
Results are presented as distance travelled for the control group (empty bar) and for the group of animals that obtained the drug (filled bar).
The animals were placed in the motility meters immediately after administration and locomotor activity was recorded for 180 minutes. Results are presented as distance travelled for the control group (empty bars) and for the group of animals that obtained the drug (filled bar).

Series [2] deals with unilaterally 6-OHDA lesioned rats. Kind of series: Contralateral rotations in unilaterally 6-OHDA lesioned rats. The following applies: for contralateral turns: dopamine-receptor agonist potency / duration of action as compared to that of apomorphine / bioavailability indicated by contralateral turns after IP and PO administration: 0.1 mg/kg, FIG. 4; for contralateral turns: dopamine-receptor agonist potency: IP (n=4) and PO (n=6); for duration of action as compared to that of apomorphine: IP and PO; for bioavailability indicated by contralateral turns after IP and PO administration: IP vs PO. As for the experimental part: Male Sprague-Dawley rats (150 g; Scanbur, Sweden) were used for this study and housed in separate air-conditioned rooms (12-h dark/light cycle) at 20° C. and a humidity of 53%. Experiments were performed in agreement with the European Communities Council Directive of 24 Nov. 1986 (86/609/EEC) on the ethical use of animals and were approved by the local ethical committee at Karolinska Institute. In most of the experiments, unilaterally 6-OHDA lesioned rats were used to mimic aspects of Parkinsonism. Unilateral 6-OHDA lesioning of nigral dopaminergic axons was performed as previously described (Zhang et al., Neuropharmacology 54 (2008) 1143-1152). Briefly, rats were anesthetized with ketamine (100 mg/kg, i.p.; Parke-Davis, Boxmeer, Netherlands)/xylazine (5 mg/kg, i.p.; Bayer, Kiel, Germany), pretreated with desipramine (25 mg/kg, i.p.; Sigma, Stockholm, Sweden) and pargyline (5 mg/kg, i.p.; Sigma), placed in a stereotaxic instrument and injected with 6-OHDA (2.5 p.I of a 5 mg/ml solution; Sigma) into the medial forebrain bundle of the right hemisphere (AP—2.8 mm, ML—2.0 mm and V—9.0 mm). Two weeks after unilateral 6-OHDA lesioning, rats were administered with apomorphine (1 mg/kg, i.p; Sigma), and their contralateral rotations were measured. […] Only rats which rotated contralaterally more than 100 times were included in further experiments.
The time scale is minutes or hours after administration. […] Negative control animals were injected with saline.

In series [3] the test system is egr-1. The series can be described thus: m-RNA analysis of egr-1 in brain regions (Taqman PCR). The following applies: SC. As for the experimental part:
(§1) Animals were killed 60 min after the injection of the drugs by decapitation.
(§2) The brains were dissected into a left and a right part. The left part was analyzed for gene expression and dissected into 4 different areas:
(§3) Limbic system (containing nucleus accumbens, most parts of the olfactory tubercle, ventral pallidum and amygdala), striatum, frontal cortex, and hippocampus.
(§4) Total RNA was prepared by RNeasy Plus Universal Tissue Mini Kit (Qiagen).
(§5) RNA pellets were dissolved in RNAse-free water and stored at −80° C. The sample concentration was determined spectrophotometrically by a NanoDrop ND-1000.
(§6) A two-step reversed transcription was performed by using a SuperScript III kit (Invitrogen). 1 μg of total RNA was reversed transcribed with 5 μl 2×RT Reaction Mix, 1 μl RT Enzyme and the mix volume was adjusted to 10 μl with RNAse-free water. The sample was incubated at 25° C. for 10 min, 50° C. for 30 min and finally 85° C. for 5 min. […]
(§7) EGR-1 (Early growth response qRnoCEP0022872) was analyzed in duplex with the reference gene HPRT (hypoxanthine phosphoribosyltransferase qRnoCEP0050840). Npas4 (neuronal PAS domain protein4 qRnoCEP0029461) was analyzed in singleplex. The reference gene Ppia (cyclophilin A peptidyl-propyl cis-trans isomerase qRnoCIP0050815) was also analyzed in order to quantify gene expression for genes of interest.
A general note: Real-time PCR tracks product formation cycle by cycle.

Series [4] relates to Arc mRNA. Kind of series: m-RNA analysis of Arc in brain regions (real-time PCR). The conditions noted are these: 0.3 and 1 μmol/kg SC, 60 min after injection, percent of control, FIG. 5. As for the experimental part:
as §1, §2, §3, §4, §5
A two-step reversed transcription was performed by using a SuperScript III kit (Invitrogen). 1 μg of total RNA was reversed transcribed with 5 μl 2×RT Reaction Mix, 1 μl RT Enzyme and the mix volume was adjusted to 10 μl with RNAse-free water. The sample was incubated at 25° C. for 10 min, 50° C. for 30 min and finally 85° C. for 5 min. 1 U of E. coli RNase H was added following incubation at 37° C. for 20 min and 85° C. for 5 minutes. The cDNA solution was diluted 40 times in Tris EDTA buffer solution pH8 (Merck) and stored at −20° C.
Three sequences (arc and two reference genes) were amplified together in a triplex PCR-reaction. For real-time PCR measurements: 5 μl of the cDNA reaction was amplified in a 20 μl reaction mixture containing 10 μl PerfeCTa MultiPlex qPCR SuperMix (Quantabio), 3.5 μl RNAse-free water, 0.15 µM of each primer and 0.1 μM of each probe. Real-time PCR was measured on CFX96 (Bio-Rad) using the following settings for all genes: 3 min pre-incubation at 95° C. followed by 40 cycles of denaturation at 95° C. for 15 s, annealing and elongation at 60° C. for 1 min. Reference genes are HPRT and cyclophilin.
FIG. 5 illustrates the effects on tissue levels of Arc mRNA in four different regions of the brain (limbic regions, striatum, frontal cortex and hippocampus) after subcutaneous administration of two different compounds at two different doses as in comparison to that of corresponding control experiments. The bars in the left half of the figure represent the effects on ARC by the prior art compound according to Preparation 4A ((4aR,10aR)-1-propyl-1,2,3,4,4a,5,8,9,10,10a-decahydrobenzo[g]quinolin-6 (7H)-one) and the bars in the right half of the figure represent the effects on ARC by the compound of the present disclosure according to Example 4B ((4aR,10aR)-1-propyl-1,2,3,4,4a,5,6,7,8,9,10,10a-dodecahydrobenzo[g]quinolin-6-ol). The effects on tissue levels of Arc by both of the two aforementioned compounds were measured at two different doses (0.3 μmol/kg and 1 μmol/kg) and the effect is presented as percent of control means±SEM. Statistical significance was assessed using Student's t-test (2 tailed) vs controls.

For series [5], the system named is Npas4. Kind of series: m-RNA analysis of Npas4 in brain regions (Taqman PCR). The conditions noted are these: SC. On the procedure: as §1, §2, §3, §4, §5, §6, §7

For `CCCN1CCC[C@@H]2CC3=C(CCC[C@H]3O)C[C@H]21` [Example 4B, (4aR,6R,10aR)-1-propyl-1,2,3,4,4a,5,6,7,8,9,10,10a-dodecahydrobenzo[g]quinolin-6-ol], in series [1], the “on-set of action (distance travelled increases after the initial decrease)” value was 35 to 40 min; the “side effect profile, inferred from slower on-set of action” value is “no or a mild side effect profile”; the “effect on motor activity (distance travelled)” value is “induce hyperactivity”. In addition, in series [2], the “contralateral turns: dopamine-receptor agonist potency” value is “highly potent dopamine-receptor agonists”; the “duration of action as compared to that of apomorphine” value is listed as “very long duration of action”; the “bioavailability indicated by contralateral turns after IP and PO administration” value is “good bioavailability”. The “tissue levels of egr-1 in the limbic regions” value in series [3] (60 min after injection) is reported as “increases tissue levels”. Moreover, the “increase of egr-1 in the limbic regions compared to Preparation 4A” value in series [3] (vs prior art compound) is “to a greater extent”. In series [4], the “tissue levels of Arc in the frontal cortex” value is “dose-dependently increase” and the “tissue levels of Arc in the limbic regions” value is on record as “dose-dependently increases”. Further, the “tissue levels of Npas4 in the limbic regions” value in series [5] (60 min after injection) is listed as “increases tissue levels”. Besides, the “increase of Npas4 in the limbic regions compared to Preparation 4A” value in series [5] (vs prior art compound) is “to a greater extent”.

For `CCCN1CCC[C@@H]2CC3=C(CCCC3=O)C[C@H]21` [Preparation 4A, (4aR,10aR)-1-propyl-1,2,3,4,4a,5,8,9,10,10a-decahydrobenzo[g]quinolin-6 (7H)-one], in series [1], the “on-set of action (distance travelled increases after the initial decrease)” value fell in the range of 20 to 25 min, the “time at which a long distance travelled is already reached (steep immediate effect)” value is 20 to 45 min and the “effect on motor activity (distance travelled)” value is on record as “induce hyperactivity”. Moreover, the “peak plasma concentration of the active species, inferred from locomotor data” value in series [1] (compared to Example 4B) was “higher peak plasma concentration”. For the same compound, in series [4], the “tissue levels of Arc in the frontal cortex” value was “dose-dependently increase” and the “tissue levels of Arc in the limbic regions” value was “does not have”.

In the case of `CN1CCc2cccc3c2[C@H]1Cc1ccc(O)c(O)c1-3` [apomorphine, reference compound], in series [2] (1 mg/kg i.p., FIG. 3), the “contralateral turns as a function of time (course of effect)” value was “declines over time”.

Turning to `CCCN1CCC[C@@H]2CC3=C(CCC[C@@H]3O)C[C@H]21` [epimer 2, (4aR,6S,10aR)-1-propyl-1,2,3,4,4a,5,6,7,8,9,10,10a-dodecahydrobenzo[g]quinolin-6-ol], in series [2], the “contralateral turns: dopamine-receptor agonist potency” value is “highly potent dopamine-receptor agonists”; the “duration of action as compared to that of apomorphine” value is on record as “very long duration of action”; the “bioavailability indicated by contralateral turns after IP and PO administration” value was “good bioavailability”.

Values taken from patent publication US20250282733A1, “NOVEL 1,2,3,4,4A,5,6,7,8,9,10,10A-DODECAHYDROBENZO[G]QUINOLIN-6-OL COMPOUNDS AND USES THEREOF” (priority 2022, published 2025).
